Results taken from patent US20240116845A1, “INDENE COMPOUNDS, PHARMACEUTICAL COMPOSITIONS THEREOF, AND THEIR THERAPEUTIC APPLICATIONS” (NucMito Pharmaceuticals Co., Ltd., priority 2021, published 2024).

What was measured:
Format in all cases: cell-based
[1] = tested on: alpha-smooth muscle actin (α-SMA); test: Inhibition of TGF-β induced expression of alpha-smooth muscle actin in CFSC cells (western blot); details: compound at 10 μM, TGF-β (10 ng/mL), 24 hours
Procedure: The ability of a compound to inhibit the TGF-β induced expression of alpha-smooth muscle actin (α-SMA) was evaluated in CCl4-treated fat storing (CFSC) cells. α-SMA is considered as a reliable marker of hepatic stellate cell activation and a key biomarker for liver fibrosis.
CFSC cells maintained in a DMEM medium supplemented with 10% fetal bovine serum were seeded to 12-well culture dishes and grown to a confluence of 60-70% the next day. Culture was changed to a serum-free DMEM medium and the cells were treated with the compound at 10 μM in the presence of TGF-β (10 ng/mL). The cells were incubated for another 24 hours. All culture was maintained at 37° C. in 5% carbon dioxide.
An NP-40 lysate solution (50 mM Tris, pH 7.4, 150 mM NaCl, 1% NP-40) with EDTA free cocktail added was used to lyse the cells on ice for 30 min. The lysate was collected and centrifuged at 4° C. for 10 min at 12,000 rpm. The pellet was discarded and the supernatant was transferred to a new tube. The cell lysate was loaded with 5× loading buffer and boiled for 10 min, resolved by 10% SDS-polyacrylamide gel electrophoresis (SDS-PAGE), and transferred to a PVDF membrane. The membrane was blocked with 5% skim milk in Tris-buffered saline and TWEEN® 20 (TBST; 10 mM Tris-HCl, pH 8.0, 150 mM NaCl, 0.1% TWEEN® 20) for 1 h at room temperature and then incubated with α-SMA and β-actin antibodies overnight at 4° C. After washing twice with TBST, the membrane was probed with a […] anti-immunoglobulin (1:5000 dilution) for 1 h at room temperature. After two subsequent rinses in TBST, immunoreactive products were reacted with ECL and visualized by a UVP CHEMSTUDIO™ imaging system. The western blotting bands are quantitated using an ImageJ software. The percentage of inhibition was obtained by calculating the percentage decrease in the band intensity compared to the one treated with TGF-β only.
The results are summarized in Table 1, where A represents a value no less than 80/% inhibition, B represents a value less than 80% but no less than 50% inhibition, C represents a value less than 50% but no less than 30% inhibition, and D represents a value less than 30% inhibition with a compound at 10 μM.

HeLa (cervical cancer) = test: Antiproliferative activity, CCK-8 cell viability; details: Homo sapiens, 72 h, read-out: Inhibition of Cancerous Cells, HELA
Procedure: (§1) The antiproliferative activity of a compound was determined in the following cell lines: MDA-MB-231 (breast cancer), HepG2 (liver cancer), SW480 (colon cancer), B16F10 (malignant melanoma), A431 (epidermoid carcinoma), A549 (lung adenocarcinoma), and HeLa (cervical cancer). MDA-MB-231, HepG2, SW480, B16F10, and A431 cells were cultured in Dulbecco's modified Eagle's medium (DMEM) containing 10% fetal bovine serum (FBS). HeLa cells were cultured in MEM/EBSS (MEM) containing 10% FBS. A549 cells were maintained in Kaighn's modification of Ham's F-12 medium containing 10% FBS. The Cell Counting Kit-8 (CCK-8) assay was used to determine the cell viability of cells following treatment with the compound.
(§2) Briefly, cells were seeded in a 96-well plate at a density of 2,000-5,000 cells/well. Following attachment, the cells were treated with the compound in media at a compound concentration of 3.3 μM, 10 μM, or 30 μM, or DMSO as a control. After the cells were incubated at 37° C. for 72 h, the CCK-8 solution (10 μL) was added to each well. After incubation at 37° C. for 4 h, the absorbance value of each well was determined using a multi-well plate reader at 450 nm. The percentage of cell viability was determined with respect to the DMSO-treated cells. The results were summarized in Table 2-4 below, wherein A represents no less than 50% inhibition of cell growth; B represents less than 50% but no less than 30% inhibition of cell growth; C represents less than 30% inhibition of cell growth.

[2] = tested on: A549 (lung adenocarcinoma); test: Antiproliferative activity, CCK-8 cell viability; details: Homo sapiens, 72 h, read-out: Inhibition of Cancerous Cells, A549
Procedure: as §1, §2

HepG2 (liver cancer) = test: Antiproliferative activity, CCK-8 cell viability; details: Homo sapiens, 72 h, read-out: Inhibition of Cancerous Cells, HepG2
Procedure: as §1, §2

[3] = tested on: B16F10 (malignant melanoma); test: Antiproliferative activity, CCK-8 cell viability; details: Mus musculus, B16-F10, 72 h, read-out: Inhibition of Cancerous Cells, B16F10
Procedure: as §1, §2

SW480 (colon cancer) = test: Antiproliferative activity, CCK-8 cell viability; details: Homo sapiens, 72 h, read-out: Inhibition of Cancerous Cells, SW480
Procedure: as §1, §2

[4] = tested on: MDA-MB-231 (breast cancer); test: Antiproliferative activity, CCK-8 cell viability; details: Homo sapiens, 72 h, read-out: Inhibition of Cancerous Cells, MDA-MB-231
Procedure: as §1, §2

[5] = compound concentration of 3.3 μM
[6] = compound concentration of 10 μM
[7] = compound concentration of 30 μM

Work on `COc1ccc2c(c1)C(CC(=O)O)=C(C)/C2=C/c1ccc(Oc2ccccc2)cc1` [Compound D11, 2-[(1Z)-5-Methoxy-2-methyl-1-[(4-phenoxyphenyl)methylidene]-1H-inden-3-yl]acetic acid] yielded an inhibition at 10 µM [1] of at least 80%.
Molecule `COc1ccc2c(c1)/C(=C\c1ccc(Oc3ccccc3)cc1)C(C)=C2CC(=O)O` [Compound D29, 2-[(1Z)-6-Methoxy-1-(4-(phenoxy)benzylidene)-2-methyl-1H-inden-3-yl]-acetic acid] has an inhibition at 10 µM [1] of 50 to 80%.
With `CC1=C(CC(N)=O)c2cc(F)ccc2/C1=C\c1ccc(C(C)(C)C)cc1` [Compound D41, (Z)-2-(1-(4-(Tert-butyl)benZylidene)-5-fluoro-2-methyl-1H-inden-3-yl)acetamide] the inhibition at 10 µM [1] was at least 80%.
With `CC1=C(CC(=O)O)c2cc(F)ccc2/C1=C\c1cccc(Oc2ccccc2)c1` [Compound D18, (Z)-2-(5-Fluoro-2-methyl-1-(3-phenoxybenzylidene)-1H-inden-3-yl)acetic acid] the inhibition at 10 µM [1] was at least 80%.
`CC1=C(CC(=O)O)c2cc(C(C)(C)C)ccc2/C1=C\c1ccc(Oc2ccc(F)cc2)cc1` [Compound D17, 2-[(1Z)-5-Tert-butyl-2-methyl-1-({4-[4-fluorophenoxy]phenyl}methylidene)-1H-inden-3-yl]acetic acid] gave an inhibition at 10 µM [1] of at least 80%.
For `CC1=C(CC(=O)O)c2cc(F)ccc2/C1=C\c1ccc(OCc2ccccc2)cc1` [Compound A2, 2-[(1Z)-5-Fluoro-1-(4-(benzyloxy)benzylidene)-2-methyl-1H-inden-3-yl]-acetic acid], the inhibition at 10 µM [1] was at least 80%.
For `COc1ccc2c(c1)/C(=C\c1cccc(Oc3ccccc3)c1)C(C)=C2CC(=O)O` [Compound D35, 2-[(1Z)-6-Methoxy-1-(3-(phenoxy)benzylidene)-2-methyl-1H-inden-3-yl]-acetic acid], the inhibition at 10 µM [1] was under 30%.
`CC1=C(CC(=O)NO)c2cc(F)ccc2/C1=C/c1ccc(C(C)(C)C)cc1` [Compound E6, (E)-2-(1-(4-(Tert-butyl)benzylidene)-5-fluoro-2-methyl-1H-inden-3-yl)-N-hydroxyacetamide] was tested, and the inhibition at 10 µM [1] was 50 to 80%.
In the case of `CC(C)CC1=C(CC(=O)O)c2cc(F)ccc2/C1=C\c1ccc(Oc2ccc(F)cc2)cc1` [Compound D8, 2-[(1Z)-5-Fluoro-1-{[4-(4-fluorophenoxy)phenyl]methylidene}-2-(2-methyl-propyl)-1H-inden-3-yl]acetic acid], the inhibition at 10 µM [1] is reported as at least 80%.
For `CC1=C(CC(=O)O)c2cc(F)ccc2/C1=C\c1ccc(Oc2ccc(C)c(F)c2)cc1` [Compound D4, 2-[(1Z)-5-Fluoro-2-methyl-1-({4-[3-fluoro-4-methylphenoxy]phenyl}-methylidene)-1H-inden-3-yl]acetic acid], the inhibition at 10 µM [1] was at least 80%.
`CC1=C(CC(=O)NO)c2cc(F)ccc2/C1=C\c1ccc(C2=CCCC2)cc1` [Compound D40, (Z)-2-(1-(4-(Cyclopent-1-en-1-yl)benzylidene)-5-fluoro-2-methyl-1H-inden-3-yl)-N-hydroxyacetamide] was tested, and the inhibition at 10 µM [1] was 50 to 80%.
`CC1=C(CC(=O)NO)c2cc(F)ccc2/C1=C\c1ccnc2ccccc12` [Compound C6, (Z)-2-(5-Fluoro-2-methyl-1-(quinolin-4-ylmethylene)-1H-inden-3-yl)-N-hydroxyacetamide] was tested, and the inhibition at 10 µM [1] was at least 80%.
`CC1=C(CC(=O)O)c2cc(F)ccc2/C1=C\c1cccc(Oc2ccc(C#N)cc2)c1` [Compound D24, 2-[(1Z)-5-Fluoro-2-methyl-1-({3-[4-cyanophenoxy]phenyl}methylidene)-1H-inden-3-yl]acetic acid] gave an inhibition at 10 µM [1] of at least 80%.
`CC1=C(CC(=O)O)c2cc(F)ccc2/C1=C\c1cccc(Oc2ccc(C(F)(F)F)cc2)c1` [Compound D26, 2-[(1Z)-5-Fluoro-2-methyl-1-({3-[4-trifluoromethylphenoxy]phenyl}-methylidene)-1H-inden-3-yl]acetic acid] was tested, and the inhibition at 10 µM [1] was at least 80%, the inhibition at 3.3 µM (HeLa (cervical cancer); [5]) was 30 to 50% and the inhibition at 10 µM (HeLa (cervical cancer); [6]) was at least 50%. It also gave an inhibition at 30 µM (HeLa (cervical cancer); [7]) of at least 50%, an inhibition at 3.3 µM [2, 5] of 30 to 50% and an inhibition at 10 µM [2, 6] of 30 to 50%. It also gave an inhibition at 30 µM [2, 7] of at least 50%, an inhibition at 3.3 µM (HepG2 (liver cancer); [5]) of 30 to 50% and an inhibition at 10 µM (HepG2 (liver cancer); [6]) of at least 50%. For the same molecule, the inhibition at 30 µM (HepG2 (liver cancer); [7]) was at least 50%, the inhibition at 3.3 µM [3, 5] was 30 to 50% and the inhibition at 10 µM [3, 6] was at least 50%. For the same molecule, the inhibition at 30 µM [3, 7] was at least 50%, the inhibition at 3.3 µM (SW480 (colon cancer); [5]) was under 30% and the inhibition at 10 µM (SW480 (colon cancer); [6]) was under 30%. The inhibition at 30 µM (SW480 (colon cancer); [7]) was at least 50%, the inhibition at 3.3 µM [4, 5] was at least 50% and the inhibition at 10 µM [4, 6] was at least 50%. The inhibition at 30 µM [4, 7] was at least 50%.
Molecule `CC1=C(CC(=O)O)c2cc(F)ccc2/C1=C\c1cccc(N(C)c2ccccc2)c1` [Compound D37, 2-[(1Z)-5-Fluoro-2-methyl-1-({3-[methyl(phenyl)amino]phenyl}methylidene)-1H-inden-3-yl]acetic acid] has an inhibition at 10 µM [1] of at least 80%.
Work on `CC1=C(CC(=O)O)c2cc(F)ccc2/C1=C\c1ccc(C2=CCCC2)cc1` [Compound D39, (Z)-2-(1-(4-(Cyclopent-1-en-1-yl)benzylidene)-5-fluoro-2-methyl-1H-inden-3-yl)acetic acid] yielded an inhibition at 10 µM [1] of 50 to 80%.
